Legend:
Settings in all cases: 72 h
Caco-2 [1] = test: cell viability relative to DMSO; higher = less toxic
Calu-3 [2] = test: as above
HepG2 [3] = test: as above
U2OS [4] = test: as above
Vero E6 [5] = test: as above
Caco-2 [6] = test: relative viability EC50 (midpoint between 100% and the lowest measured viability); higher = less toxic
Calu-3 [7] = test: as above
HepG2 [8] = test: as above
U2OS [9] = test: as above
Vero E6 [10] = test: as above
Caco-2 [11] = test: drug sensitivity score (DSS) for viability; higher = more toxic; extreme values may be limits of the assay
Calu-3 [12] = test: as above
HepG2 [13] = test: as above
U2OS [14] = test: as above
Vero E6 [15] = test: as above

Compound	cell viability (Caco-2 [1]; 1 nM) [%]	cell viability (Caco-2 [1]; 10 nM) [%]	cell viability (Caco-2 [1]; 100 nM) [%]	cell viability (Caco-2 [1]; 1000 nM) [%]	cell viability (Caco-2 [1]; 10000 nM) [%]	cell viability (Calu-3 [2]; 1 nM) [%]	cell viability (Calu-3 [2]; 10 nM) [%]	cell viability (Calu-3 [2]; 100 nM) [%]	cell viability (Calu-3 [2]; 1000 nM) [%]	cell viability (Calu-3 [2]; 10000 nM) [%]	cell viability (HepG2 [3]; 1 nM) [%]	cell viability (HepG2 [3]; 10 nM) [%]	cell viability (HepG2 [3]; 100 nM) [%]	cell viability (HepG2 [3]; 1000 nM) [%]	cell viability (HepG2 [3]; 10000 nM) [%]	cell viability (U2OS [4]; 1 nM) [%]	cell viability (U2OS [4]; 10 nM) [%]	cell viability (U2OS [4]; 100 nM) [%]	cell viability (U2OS [4]; 1000 nM) [%]	cell viability (U2OS [4]; 10000 nM) [%]	cell viability (Vero E6 [5]; 1 nM) [%]	cell viability (Vero E6 [5]; 10 nM) [%]	cell viability (Vero E6 [5]; 100 nM) [%]	cell viability (Vero E6 [5]; 1000 nM) [%]	cell viability (Vero E6 [5]; 10000 nM) [%]	relative viability EC50 (Caco-2 [6]) [µM]	relative viability EC50 (Calu-3 [7]) [µM]	relative viability EC50 (HepG2 [8]) [µM]	relative viability EC50 (U2OS [9]) [µM]	relative viability EC50 (Vero E6 [10]) [µM]	drug sensitivity score (Caco-2 [11])	drug sensitivity score (Calu-3 [12])	drug sensitivity score (HepG2 [13])	drug sensitivity score (U2OS [14])	drug sensitivity score (Vero E6 [15])
CCCCCCCCCCC(=O)O[C@H]1CC[C@H]2[C@@H]3CCC4=CC(=O)CC[C@]4(C)[C@H]3CC[C@]12C [Testosterone (undecanoate)]	87.3	92.9	104	96.7	91.5	103	94.7	96.5	94.4	100	95.6	106	92.4	99.4	96.9	99.8	94.4	102	99.4	97.7	98.5	97.2	99.2	95.5	94.9	> 10	> 10	> 10	> 10	> 10	0	0	0	0	0
O=C(c1cccc(Br)c1)N1CCC(N2CCCC2)CC1 [UNC926]	99.8	98.4	102	100	92.8	93.7	90.2	113	92.6	96.4	100	104	90.4	104	108	102	97.2	99.5	102	101	90.9	101	91.5	96.4	107	> 10	> 10	> 10	> 10	> 10	0	0	0	0	0
O=C(c1ccc(C(=O)N2CCC(N3CCCC3)CC2)c(Nc2ccccc2)c1)N1CCC(N2CCCC2)CC1 [UNC1215]	108	97.7	100	110	94.1	105	111	106	93.4	101	98.6	99.2	96.7	98	103	104	102	100	97.9	105	94	95.9	101	99.6	99.9	> 10	> 10	> 10	> 10	> 10	0	0	0	0	0
NC(=O)c1ccc(N(C(N)=O)c2c(F)cccc2F)nc1-c1ccc(F)cc1F [VX-702]	102	89.9	103	85.6	88.4	101	94.4	94	95.4	87.8	101	109	91.9	110	108	97.8	96.2	96.8	92.6	94.4	92.7	105	88.5	89.1	89.1	> 10	> 10	> 10	> 10	> 10	1.1	0	0	0	0.7
CCO[C@@H]1OC(=O)C[C@@H]1NC(=O)[C@@H]1CCCN1C(=O)[C@@H](NC(=O)c1ccc(N)c(Cl)c1)C(C)(C)C [VX-765]	97.7	104	117	98	86	111	93.8	90.5	95.5	98.6	95.5	103	88.4	88.3	92.2	98.2	104	94.7	100	98.8	98.8	102	95.2	93.9	100	> 10	> 10	> 10	> 10	> 10	0.3	0	0.9	0	0
NC(=O)c1ncn([C@@H]2O[C@H](CO)[C@@H](O)[C@H]2O)c1N [acadesine]	96.7	98.1	86.4	92.7	95.7	96.6	94.9	84.2	97.8	90.8	98.1	96.1	105	97.9	102	100	91.8	96.5	97.9	102	101	98	100	94.4	97.2	> 10	> 10	> 10	> 10	> 10	0	0	0	0	0
CC(=O)NCCCS(=O)(=O)O [acamprosate]	109	102	101	96.3	114	104	102	97.9	105	103	111	98.1	94.5	90.2	110	95.7	99.3	99.3	102	99.2	102	99.5	106	103	103	> 10	> 10	> 10	> 10	> 10	0	0	0	0	0
CCCCC(CC)CNC(=N)NC(=N)NCCCCCCNC(=N)NC(=N)NCC(CC)CCCC (stereo not given) [alexidine]	94.6	99.3	105	101	1.2	97.1	105	104	103	105	106	93.2	105	50.7	6	93.6	91.8	99.3	91	3.9	108	106	93.3	109	32.8	3.22	> 10	0.964	2.39	3.73	5.4	0	11.2	6.8	3.1
C=CC[C@]1(O)CC[C@H]2[C@@H]3CCC4=CC(=O)CCC4=C3C=C[C@@]21C [altrenogest]	102	98.1	99	107	96.5	107	88	97.6	99	105	107	95.9	93.6	90.2	101	92.7	97.2	96.1	97.7	104	97	97.5	93.2	89.5	104	> 10	> 10	> 10	> 10	> 10	0	0	0	0	0
NC[C@@H](O)CC(=O)O [aminohydroxybutyric-acid]	92.1	91	86.2	103	105	98.4	103	97.7	95.1	104	102	91.7	108	97.2	104	93.6	99.7	96.4	106	102	98.6	91.9	93.3	92.4	102	> 10	> 10	> 10	> 10	> 10	0	0	0	0	0
COc1ccc(C2CNC(=O)NC2)cc1O[C@H]1C[C@@H]2CC[C@H]1C2 [atizoram]	95.3	96.9	98.6	96.6	102	103	102	96.3	108	108	99	107	102	94.1	82.8	106	96.5	101	102	103	96.5	105	100	99.5	87.4	> 10	> 10	> 10	> 10	> 10	0	0	1	0	0.1
NCCc1cc[nH]n1 [betazole]	89	91.4	84.3	92.6	107	97.2	102	97.2	101	109	100	106	92.9	98	125	102	99.5	105	102	108	94.4	104	92.8	106	106	> 10	> 10	> 10	> 10	> 10	0	0	0	0	0
COc1ccc(CCNCC(O)COc2cccc(C)c2)cc1OC (stereo not given) [bevantolol]	94.3	111	103	90.3	104	107	103	102	113	96	90.1	87.2	99.7	89.8	92.1	101	95.9	101	101	99.8	98.5	95.8	94.7	90.1	98.7	> 10	> 10	> 10	> 10	> 10	0	0	0	0	0
Nc1c(CC(=O)O)cccc1C(=O)c1ccc(Br)cc1 [bromfenac]	88.1	94.3	93.4	95.7	101	95.7	97	104	84.2	97.7	96.3	97.4	97.2	104	104	100	98.6	103	99.4	96	95.4	103	98.1	97.3	105	> 10	> 10	> 10	> 10	> 10	0	0	0	0	0
